Experimental findings from patent US8785488B2 (Exelixis Patent Company LLC, priority 2009, dated 2014) are described below.

pEC50: −log10 of the molar value.

Assay [1] has as its target T1, human TGR5 (h-TGR5) (Homo sapiens, UniProt Q8TDU6).
T1 construct: expressed in transfected cells
T1 sequence (Q8TDU6 1-330): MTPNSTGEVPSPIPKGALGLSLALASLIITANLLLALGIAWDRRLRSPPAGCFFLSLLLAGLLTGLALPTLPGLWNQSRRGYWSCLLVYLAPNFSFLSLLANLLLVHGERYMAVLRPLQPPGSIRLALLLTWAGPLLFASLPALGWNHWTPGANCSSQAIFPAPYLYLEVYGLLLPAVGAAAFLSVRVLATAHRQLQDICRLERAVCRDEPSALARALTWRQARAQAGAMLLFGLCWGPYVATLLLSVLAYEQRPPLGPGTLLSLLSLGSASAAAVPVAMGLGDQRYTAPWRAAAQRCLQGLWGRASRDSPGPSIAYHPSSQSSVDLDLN
In words: TGR5/CRE-Luciferiase Assay (HEK 293 hTGR5/CRE-Luc cells). Conditions: h-TGR5 CRE-Luc EC50, Table 1; read-out: CRE-Luc (EC50). The assay is classed as cell-based. An outline of the steps:
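HEK293 cells stably carrying hTGR5 and a CRE-luciferase reporter were exposed to serially diluted compounds (diluted in DMEM with 5% DMSO) for 6 h. Cells were then lysed in luciferase buffer, luminescence was read, and EC50 values were derived from dose-response curves.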

For assay [2], the target named is T2, h-TGR5 (Homo sapiens, UniProt Q8TDU6).
T2 construct: expressed in transfected cells
T2 sequence (Q8TDU6 1-330): T1 sequence (Q8TDU6 1-330)
In words: TGR5 cAMP Assay using Cisbio cAMP Dynamic2 htrf kit (hTGR5CRE-luc HEK 293 cells). The format is cell-based. Conditions: h-TGR5 cAMP EC50, Table 1; read-out: cAMP (EC50). Summed up: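 […], 4000 hTGR5CRE-luc HEK 293 cells per well, with 0.5 mM IBMX and d2-cAMP, were incubated 30 min at room temperature with compounds in 8-point half-log series, in quadruplicate.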

Consider `COc1cc(C(C)(C)c2cnc(SCc3cc(C(=O)O)ccc3Cl)n2-c2ccc(F)cc2)ccc1Cl` [4-chloro-3-({[5-{1-[4-chloro-3-(methyloxy)phenyl]-1-methylethyl}-1-(4-fluorophenyl)-1H-imidazol-2-yl]thio}methyl)benzoic acid], for which the negative logarithm of the EC50 (pEC50) in assay [1] and in assay [2] was more than 7.00 in each case.

For `CC(C)(c1ccc(F)c(Cl)c1)c1cnc(SCc2c(F)cccc2Cl)n1-c1ccc(F)cc1` [5-[1-(3-chloro-4-fluorophenyl)-1-methylethyl]-2-{[(2-chloro-6-fluorophenyl)methyl]thio}-1-(4-fluorophenyl)-1H-imidazole], the pEC50 (usually −log10 of the EC50, conventionally taken in molar units) in assay [1] is more than 7.00; in assay [2], 6.00 to 7.00.

As to `CC(C)(c1ccc(Cl)c(Cl)c1)c1cnc(SCc2ccc(Cl)c(-c3nnn[nH]3)c2)n1-c1ccc(F)cc1` [5-{2-chloro-5-[({5-[1-(3,4-dichlorophenyl)-1-methylethyl]-1-(4-fluorophenyl)-1H-imidazol-2-yl}thio)methyl]phenyl}-1H-tetrazole], the pEC50 in assay [1] and in assay [2] was 6.00 to 7.00 in each case.

For the molecule `CC(C)(c1ccc(F)cc1)c1cnc(SCc2ccc(S(=O)(=O)NC(=O)NN3CCCC3)cc2Cl)n1-c1ccc(F)c(Cl)c1` [3-chloro-4-[({1-(3-chloro-4-fluorophenyl)-5-[1-(4-fluorophenyl)-1-methylethyl]-1H-imidazol-2-yl}thio)methyl]-N-[(pyrrolidin-1-ylamino)carbonyl]benzenesulfonamide], the pEC50 in assay [1] was 6.00 to 7.00; in assay [2] it was 5.00 to 6.00.

For `CC(C)(c1ccc(Cl)c(Cl)c1)c1cnc(SCc2ccc(C(=O)NCC(=O)O)cc2F)n1-c1ccc(F)cc1` [N-({4-[({5-[1-(3,4-dichlorophenyl)-1-methylethyl]-1-(4-fluorophenyl)-1H-imidazol-2-yl}thio)methyl]-3-fluorophenyl}carbonyl)glycine], the pEC50 in assay [1] and in assay [2] was 6.00 to 7.00 each time.

For the molecule `CC(=O)N1CCC(CSc2ncc(C(C)(C)c3ccc(Cl)c(Cl)c3)n2-c2ccc(F)cc2)CC1` [1-acetyl-4-[({5-[1-(3,4-dichlorophenyl)-1-methylethyl]-1-(4-fluorophenyl)-1H-imidazol-2-yl}thio)methyl]piperidine], the pEC50 in assay [1] is more than 7.00; in assay [2], 6.00 to 7.00.

Regarding `CC(C)(c1ccc(Cl)c(Cl)c1)c1cnc(SCc2c(F)cc(-c3nnn[nH]3)cc2F)n1-c1ccc(F)cc1` [5-{4-[({5-[1-(3,4-dichlorophenyl)-1-methylethyl]-1-(4-fluorophenyl)-1H-imidazol-2-yl}thio)methyl]-3,5-difluorophenyl}-1H-tetrazole], the pEC50 in assay [1] and in assay [2] was 6.00 to 7.00 in each case.

As to `COc1cc(C(C)(C)c2cnc(SCc3ccc(S(=O)(=O)NC(=O)Nn4cccc4)cc3Cl)n2-c2ccc(F)cc2)ccc1Cl` [3-chloro-4-({[5-{1-[4-chloro-3-(methyloxy)phenyl]-1-methylethyl}-1-(4-fluorophenyl)-1H-imidazol-2-yl]thio}methyl)-N-[(1H-pyrrol-1-ylamino)carbonyl]benzenesulfonamide], the negative logarithm of the EC50 (pEC50) in assay [1] and in assay [2] was 6.00 to 7.00 in each case.

`COc1cc(-n2c(C(C)(C)c3ccc(F)c(C#N)c3)cnc2SCc2c(F)cc(C(=O)O)cc2F)ccc1F` [4-[({5-[1-(3-cyano-4-fluorophenyl)-1-methylethyl]-1-[4-fluoro-3-(methyloxy)phenyl]-1H-imidazol-2-yl}thio)methyl]-3,5-difluorobenzoic acid]: the pEC50 in assay [1] and in assay [2] was more than 7.00 throughout.

Regarding `CC(C)(c1ccc(S(N)(=O)=O)c(Cl)c1)c1cnc(SCc2c(F)cc(C(=O)O)cc2F)n1-c1ccc(F)cc1` [4-({[5-{1-[4-(aminosulfonyl)-3-chlorophenyl]-1-methylethyl}-1-(4-fluorophenyl)-1H-imidazol-2-yl]thio}methyl)-3,5-difluorobenzoic acid], the negative logarithm of the EC50 (pEC50) in assay [1] and in assay [2] was more than 7.00 in each case.

On to `COc1cc(C(C)(C)c2cnc(SCc3c(F)cc(OCCNC(=N)N)cc3Cl)n2-c2ccc(F)cc2)ccc1F` [1-(2-{[3-chloro-5-fluoro-4-({[5-{1-[4-fluoro-3-(methyloxy)phenyl]-1-methylethyl}-1-(4-fluorophenyl)-1H-imidazol-2-yl]thio}methyl)phenyl]oxy}ethyl)guanidine], for which the pEC50 in assay [1] and in assay [2] was more than 7.00 in each case.

As to `COc1ccc(C2CCCCN2S(=O)(=O)c2ncc(C(C)(C)c3ccc(Cl)c(Cl)c3)n2-c2ccc(F)cc2)cn1` (stereo not drawn) [5-[1-({5-[1-(3,4-dichlorophenyl)-1-methylethyl]-1-(4-fluorophenyl)-1H-imidazol-2-yl}sulfonyl)piperidin-2-yl]-2-(methyloxy)pyridine], the negative-log EC50 (pEC50) in assay [1] and in assay [2] was 6.00 to 7.00 each time.

For `COc1cc(C(C)(C)c2cnc(SCc3c(F)cc(S(=O)(=O)NCCS(=O)(=O)O)cc3F)n2-c2ccc(F)cc2)ccc1Cl` [2-({[4-({[5-{1-[4-chloro-3-(methyloxy)phenyl]-1-methylethyl}-1-(4-fluorophenyl)-1H-imidazol-2-yl]thio}methyl)-3,5-difluorophenyl]sulfonyl}amino)ethanesulfonic acid], the pEC50 in assay [1] and in assay [2] was more than 7.00 each time.

`CC(C)(c1ccc(F)c(F)c1)c1cnc(SCc2ccc(S(=O)(=O)NC(=O)NN3CCCC3)cc2Cl)n1-c1ccc(F)cc1F` [3-chloro-4-[({1-(2,4-difluorophenyl)-5-[1-(3,4-difluorophenyl)-1-methylethyl]-1H-imidazol-2-yl}thio)methyl]-N-[(pyrrolidin-1-ylamino)carbonyl]benzenesulfonamide]: the values for the pEC50 in assay [1] and in assay [2] were 6.00 to 7.00 and 5.00 to 6.00, respectively.

For `COc1cc(C(C)(C)c2cnc(SCc3ccc(S(=O)(=O)NC(=O)NN4CCCC4)cc3Cl)n2-c2ccc(F)cc2F)ccc1Cl` [3-chloro-4-({[5-{1-[4-chloro-3-(methyloxy)phenyl]-1-methylethyl}-1-(2,4-difluorophenyl)-1H-imidazol-2-yl]thio}methyl)-N-[(pyrrolidin-1-ylamino)carbonyl]benzenesulfonamide], the negative logarithm of the EC50 (pEC50) in assay [1] and in assay [2] was 6.00 to 7.00 each time.

Consider `COc1cc(C(C)(C)c2cnc(SCc3ccc(S(=O)(=O)NC(=O)Nc4nccs4)cc3Cl)n2-c2ccc(F)cc2)ccc1Cl` [3-chloro-4-({[5-{1-[4-chloro-3-(methyloxy)phenyl]-1-methylethyl}-1-(4-fluorophenyl)-1H-imidazol-2-yl]thio}methyl)-N-[(1,3-thiazol-2-ylamino)carbonyl]benzenesulfonamide], for which the pEC50 in assay [1] and in assay [2] was 6.00 to 7.00 in each case.

On to `COc1cc(-n2c(C(C)(C)c3ccc(Cl)c(Cl)c3)cnc2SCc2ccc(CCCNC(=N)N)c(C(=O)O)c2)ccc1F` [2-(3-{[amino(imino)methyl]amino}propyl)-5-[({5-[1-(3,4-dichlorophenyl)-1-methylethyl]-1-[4-fluoro-3-(methyloxy)phenyl]-1H-imidazol-2-yl}thio)methyl]benzoic acid], for which the pEC50 in assay [1] and in assay [2] was 6.00 to 7.00 throughout.

As to `COc1cc(C(C)(C)c2cnc(SCc3c(F)cc(OCCCNC(=N)N)cc3Cl)n2-c2ccc(F)cc2)ccc1Cl` [1-(3-{[3-chloro-4-({[5-{1-[4-chloro-3-(methyloxy)phenyl]-1-methylethyl}-1-(4-fluorophenyl)-1H-imidazol-2-yl]thio}methyl)-5-fluorophenyl]oxy}propyl)guanidine], the pEC50 in assay [1] and in assay [2] was more than 7.00 each time.
